The values below come from patent EP4741383A1, “COMPOUND AND USE THEREOF AS ANTI-CANCER DRUG” (Tyligand Bioscience (Shanghai) Limited, priority 2023, dated 2025).

Each structure is given as a SMILES string.

As usually defined, the inhibition is the relative decrease from the control value, in per cent.

T1 sequence (P10635 whole entry): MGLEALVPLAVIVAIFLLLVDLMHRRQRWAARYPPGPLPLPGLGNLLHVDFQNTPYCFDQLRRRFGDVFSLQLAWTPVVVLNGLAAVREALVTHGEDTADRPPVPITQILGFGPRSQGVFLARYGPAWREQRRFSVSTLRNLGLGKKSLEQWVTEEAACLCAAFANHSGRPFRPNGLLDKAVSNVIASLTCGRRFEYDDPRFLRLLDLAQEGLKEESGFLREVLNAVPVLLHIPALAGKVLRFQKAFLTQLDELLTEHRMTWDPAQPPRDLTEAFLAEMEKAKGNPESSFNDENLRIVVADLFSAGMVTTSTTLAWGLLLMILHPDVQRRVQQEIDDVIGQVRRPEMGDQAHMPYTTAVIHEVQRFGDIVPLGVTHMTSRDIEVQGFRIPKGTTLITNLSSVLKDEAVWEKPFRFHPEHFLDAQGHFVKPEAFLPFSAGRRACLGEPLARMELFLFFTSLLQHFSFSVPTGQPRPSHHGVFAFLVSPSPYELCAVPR
T2 sequence (P11712 whole entry): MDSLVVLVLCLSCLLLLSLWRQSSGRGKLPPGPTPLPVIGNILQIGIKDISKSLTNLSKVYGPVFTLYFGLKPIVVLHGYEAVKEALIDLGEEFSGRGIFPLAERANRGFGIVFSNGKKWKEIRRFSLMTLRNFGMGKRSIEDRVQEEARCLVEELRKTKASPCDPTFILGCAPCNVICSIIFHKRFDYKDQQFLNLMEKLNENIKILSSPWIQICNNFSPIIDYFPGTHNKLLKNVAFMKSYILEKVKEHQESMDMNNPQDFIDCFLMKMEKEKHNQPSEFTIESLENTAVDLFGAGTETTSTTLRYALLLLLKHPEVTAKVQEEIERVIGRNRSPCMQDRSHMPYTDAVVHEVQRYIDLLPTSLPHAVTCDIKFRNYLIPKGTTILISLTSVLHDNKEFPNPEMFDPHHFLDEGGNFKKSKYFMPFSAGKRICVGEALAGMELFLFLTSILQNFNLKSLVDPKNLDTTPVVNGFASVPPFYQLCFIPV

The first series addresses T1, CYP2D6 (Homo sapiens, UniProt P10635).
T1 construct: tissue Corning or Xenotech; host or cells: human liver microsomes
The series is described as follows: CYP450 inhibition in human liver microsomes, CYP2D6. To be noted: pH 7.4, read-out: % CYP inhibition @ 10 µM 2D6. It counts as in vitro ADME. The source says:
(§1) According to standard methods in the field for the study of cytochrome P450 enzyme systems, such as the method described in Kerns, Edward H. and Di Li et al., Drug-like Properties: Concepts, Structure Design and Methods: from ADME to Toxicity Optimization (2008), San Diego, Academic Press, and Lin, Tong et al., In Vitro Assessment of Cytochrome P450 Inhibition: Strategies for Increasing LC/MS-Based Assay Throughput Using a One-Point IC50 Method and Multiplexing High-Performance Liquid Chromatography (J. Pharm. Sci. 2007, 96 (9), 2485). The inhibitory effect of the disclosed compounds on the cytochrome P450 enzyme system was similarly examined below.
(§2) Human liver microsomes were purchased from Corning or Xenotech. The test compounds were evaluated by detecting the metabolism of substrates for different Cyp450 isoforms by human liver microsomes.
(§3) 0.1 M potassium phosphate buffer (K-buffer, pH 7.4) was pre-warmed.
(§4) 100 mM K-buffer was prepared by mixing 9.5 mL of stock solution A (1 M potassium dihydrogen phosphate, prepared by dissolving 136.5 g of potassium dihydrogen phosphate in 1 L of Milli-Q water) with 40.5 mL of stock solution B (1 M potassium hydrogen phosphate, prepared by dissolving 174.2 g of potassium hydrogen phosphate in 1 L of Milli-Q water). The total volume was adjusted to 500 mL with Milli-Q water, and the buffer was titrated to pH 7.4 using KOH or H3PO4.
(§5) Test compound solution and specific inhibitor solution (400× dilution) were prepared in a 96-well plate. For the test compound, 8 µL of 10 mM test compound was transferred into 12 µL of ACN. For specific inhibitors of CYP1A2, CYP2C9, and CYP2D6: 12 µL of 1 mM α-naphthoflavone, 10 µL of 40 mM sulfaphenazole, 10 µL of 10 mM quinidine, and 8 µL of DMSO were mixed. For specific inhibitors of CYP3A4, CYP2B6, CYP2C8, and CYP2C19: 8 µL of DMSO stock solution was added to 12 µL of ACN.
(§6) A 4× diluted NADPH solution was prepared by dissolving 66.7 mg of NADPH in 10 mL of 0.1 M K-buffer (pH 7.4). […]
(Liver microsomes are vesicles of endoplasmic reticulum, rich in cytochrome P450 enzymes.)
As for `CC1(n2c(-c3ccc(NC(=O)C(=O)Nc4ccc(N5CCC6(CCOC6)CC5)cc4)cc3)cc3cc(F)c(-c4nnn[nH]4)cc32)CCC1` [Example 68], the inhibition at 10 min, 10 µM was -4.07%.
Same read-out and setting: the value for `O=C(Nc1ccc(-c2cc3cc(F)c(-c4nnn[nH]4)cc3n2C2CCC2)cc1)C(=O)Nc1ccc(N2CCC(CO)CC2)cc1` [Example 23] was -5.43%; that for `O=C(Nc1ccc(-c2cc3cc(F)c(-c4nnn[nH]4)cc3n2C2CCC2)cc1)C(=O)Nc1ccc(N2CCC3(CCOC3)CC2)cc1` [Example 67] was -12.6%.

A further series concerns the target T2, CYP2C9 (Homo sapiens, UniProt P11712).
T2 construct: tissue Corning or Xenotech; host or cells: human liver microsomes
The series is described as follows: CYP450 inhibition in human liver microsomes, CYP2C9. In kind it is in vitro ADME. Conditions: pH 7.4, read-out: % CYP inhibition @ 10 µM 2C9.
From the text: as §1, §2, §3, §4, §5, §6
For `CC1(n2c(-c3ccc(NC(=O)C(=O)Nc4ccc(N5CCC6(CCOC6)CC5)cc4)cc3)cc3cc(F)c(-c4nnn[nH]4)cc32)CCC1` [Example 68], the inhibition at 10 min, 10 µM worked out at 6.51%.
With `O=C(Nc1ccc(-c2cc3cc(F)c(-c4nnn[nH]4)cc3n2C2CCC2)cc1)C(=O)Nc1ccc(N2CCC(CO)CC2)cc1` [Example 23], the inhibition at 10 min, 10 µM is -3.32%.
Take `O=C(Nc1ccc(-c2cc3cc(F)c(-c4nnn[nH]4)cc3n2C2CCC2)cc1)C(=O)Nc1ccc(N2CCC3(CCOC3)CC2)cc1` [Example 67]: the inhibition at 10 min, 10 µM stood at 7.84%.
